Measured values as given in US20040209841A1, “Association compound of trehalose or maltitol with metal ion compound” (priority 2001, published 2004).
Where two headings read alike, the source gives them in different places.

Experiments:
[1] = Hygroscopicity (deliquescence) test; format: physicochemical; conditions: for Moisture content/g-sample: 25° C.
Description: A dried bittern powder was prepared by drying bittern solution in vacuo at 60° C. for 15 hours, pulverized, and dried in a usual manner for use as a control. The moisture content (weight of moisture per one gram of the sample) of each sample was measured by conventional drying loss method. […] The weight of the content in each cup was measured at the initiation of preservation (0 day preservation), and 1, 2, 4, and 7 days after the initiation. The amount of moisture per one gram of each at sample after 1 to 7 days preservation was calculated based on the assumption that the increased amount measured to that of 0 day preservation was the amount of moisture absorbed by each sample.

[2] = Change of solubility of metal ion compounds by the association with trehalose (precipitation of crystal); format: physicochemical
Description: The changes of solubility in water of trehalose and/or metal ion compounds were examined under coexistence of trehalose and metal ion compounds. […] Solutions prepared by dissolving the same amount of trehalose only or that of metal ion compounds only were prepared as controls. After dissolving the contents completely, all the beakers were allowed to stand at room temperature (25° C.) for 24 hours. Successively, precipitation of crystals was judged by macroscopic observation. In the case of precipitating crystals, the formed crystals were collected and analyzed for those component(s) by conventional method.

[3] = pH 3.5
Description: Effects of trehalose, maltitol, and other saccharides on the solubilities of calcium-organic acid salts were investigated as follows. […] Successively, five grams of commercially available calcium DL-lactate pentahydrate or calcium gluconate monohydrate, used as calcium-organic acid salts, were added to each saccharide solution, followed by suspension. Thereafter, the pH of each solution was adjusted to 3.5, and the solution was filled up to give a volume of 50 ml with deionized water. After stirring at 25° C. for 16 hours, insoluble calcium-organic acid salts were removed by centrifuging (15,000 rpm for 30 minutes). The pHs of the resulting supernatants were measured. The calcium concentrations of the supernatant were measured using an atomic adsorption photometer described in Experiment 5. The solution prepared with no saccharide was also measured for calcium concentration in the same manner as control.

[4] = Suppressing effect on the oxidation of ferrous ion (Nitroso-DMAP method); format: physicochemical; conditions: for Amount of Fe2+ ion (mg/ml) After light-irradiation: 37° C. four hours, light of about 9,000 luxes, 5% (w/v) saccharide; for Amount of Fe2+ ion (mg/ml) Before light-irradiation: ferrous chloride 1% (w/v) as ferrous ion + 5% (w/v) saccharide
Description: Generally, ferrous ion (divalent, Fe^2+) and ferric ion (trivalent, Fe^3+) are known as ions of iron element. Ferrous ion is easily oxidized with light or heat and converted to ferric ion. Effects of trehalose and maltitol on the phenomenon were investigated as follows. An aqueous solution, comprising ferrous chloride (FeCl2) tetrahydrate corresponding to the amount of 1% (w/v) as ferrous ion, and comprising trehalose or maltitol corresponding to the amount of 5% (w/v), d.s.b., was prepared as a test solution. While, a solution, comprising ferrous chloride only with the same concentration to the test solution, was prepared as a control solution. After preparing the test and control solutions, small portions of which were sampled respectively, and the amount of ferrous ion was measured by the Nitroso-DMAP method described later. Successively, 10 ml each of the test and control solution was placed separately in a 20 ml-vial and sealed. After preserving these vials at 37° C. for four hours with irradiating a light of about 9,000 luxes, the amount of ferrous ion in each solution was measured by the Nitroso-DMAP method. Measurement by the Nitroso-DMAP method was carried out as follows. After diluting the test or control solution accurately by 100-fold, 0.5 ml of the dilute was placed in a 50 ml-volumetric flask. […] After the above procedure, the absorbance at 750 nm (within the visible light range) of the solution was measured. The standard solutions, prepared by diluting stepwise a ferrous chloride solution with known concentration, were used for the measurement in the same manner to obtain a standard curve for quantitative analysis. The amount of ferrous ion of the test or the control solution was determined with the standard curve.

[5] = Suppressing effect on the deterioration of ascorbic acid under the presence of metal ion (degree of coloring); format: physicochemical; conditions: 50° C.; for Degree of coloring (Abs. at 420 nm) Preserved for 96 hrs: 14.8 mM AsA + 10 mM FeCl2 + 100 mM saccharide
Description: L-Ascorbic acid deteriorates rapidly by the oxidative degradation in the presence of iron and copper ions and causes the browning. The effects of trehalose and maltitol on the phenomenon were investigated as follows. Ten kinds of aqueous solutions having respective compositions described in Table 12 were prepared. Aqueous solutions of L-ascorbic acid alone or L-ascorbic acid and metal ion compounds were used as controls. The test solutions were prepared by adding trehalose or maltitol to the control solutions. Ten milliliters of each of these test and control solutions were placed into different 20 ml-vials and sealed. The vials were preserved at 50° C. The control and test solutions, containing ferrous chloride, and those containing ferric chloride or copper sulfate were preserved for 96 hours and 40 hours, respectively. After the preservation, the degree of coloring of each solution was measured. In the case of a control solution containing L-ascorbic acid alone, the degrees of coloring were measured at the preservation periods of 40 hours and 96 hours. The absorbance at 420 nm (within the visible light range) of each sample was measured as the degree of coloring.

[6] = 0.1 mole metal ion compound only, 30 grams of water, 25° C. 24 hours
[7] = 14.8 mM AsA + 10 mM CuSO4 + 100 mM saccharide
[8] = 14.8 mM AsA + 10 mM FeCl3 + 100 mM saccharide

Compound: O.O.[Ca+2].[Cl-].[Cl-] [CaCl2 · 2H2O, calcium chloride dihydrate]
- moisture content (weight of moisture per one gram of the sample) ([1]; before preservation, drying loss method): 0.245 g
- Moisture content/g-sample ([1]; relative humidity 33.0%, 0 day): 0.245 g
- Moisture content/g-sample ([1]; relative humidity 33.0%, 1 day): 0.289 g
- Moisture content/g-sample ([1]; relative humidity 33.0%, 2 days): 0.312 g
- Moisture content/g-sample ([1]; relative humidity 33.0%, 3 days): 0.343 g
- Moisture content/g-sample ([1]; relative humidity 33.0%, 7 days): 0.364 g
- Moisture content/g-sample ([1]; relative humidity 52.8%, 0 day): 0.245 g
- Moisture content/g-sample ([1]; relative humidity 52.8%, 1 day): 0.319 g
- Moisture content/g-sample ([1]; relative humidity 52.8%, 2 days): 0.359 g
- Moisture content/g-sample ([1]; relative humidity 52.8%, 3 days): 0.405 g
- Moisture content/g-sample ([1]; relative humidity 52.8%, 7 days): 0.430 g

Compound: [Cl][Cu] [Cuprous chloride, cuprous chloride dihydrate]
- Precipitation of crystal In the absence of trehalose [2, 6]: Precipitated

Compound: O.O.O.O.[Cl][Fe][Cl] [Ferrous chloride, ferrous chloride tetrahydrate]
- Precipitation of crystal In the absence of trehalose [2, 6]: Precipitated

Compound: OC[C@@H](O)[C@@H](O[C@H]1O[C@H](CO)[C@@H](O)[C@H](O)[C@H]1O)[C@H](O)[C@@H](O)CO [Maltitol, maltitol]
- Relative conc. (%), Calcium gluconate [3]: 128%
- Relative conc. (%), Calcium lactate [3]: 123%
- increase of calcium concentration in the supernatant in comparison with control, calcium gluconate [3]: 28%
- increase of calcium concentration in the supernatant in comparison with control, calcium lactate [3]: 23%
- Amount of Fe2+ ion (mg/ml) After light-irradiation [4]: 4.3 mg/mL
- Amount of Fe2+ ion (mg/ml) Before light-irradiation [4]: 10.2 mg/mL
- Degree of coloring (Abs. at 420 nm) Preserved for 40 hrs [5, 7]: 0.258
- Degree of coloring (Abs. at 420 nm) Preserved for 96 hrs [5]: 0.291
- Degree of coloring (Abs. at 420 nm) Preserved for 40 hrs [5, 8]: 0.198

Compound: O.O.O.O.[Cl][Mn][Cl] [Manganese chloride, manganese chloride tetrahydrate]
- Precipitation of crystal In the presence of trehalose ([2]; 0.1 mole metal ion compound + 0.1 mole trehalose, 30 grams of water, room temperature (25° C.) 24 hours, macroscopic observation): None
- Precipitation of crystal In the absence of trehalose [2, 6]: Precipitated

Compound: O.O.O.O.O.O.[Cl][Ni][Cl] [Nickel chloride, nickel chloride hexahydrate]
- Precipitation of crystal In the absence of trehalose [2]: Precipitated
- Precipitation of crystal In the presence of trehalose [2]: None

Compound: OC[C@H]1O[C@H](O[C@H]2O[C@H](CO)[C@@H](O)[C@H](O)[C@H]2O)[C@H](O)[C@@H](O)[C@@H]1O [Trehalose, α,α-trehalose]
- Relative conc. (%), Calcium gluconate ([3]; 16 h, 100 mg/ml): 112%
- Relative conc. (%), Calcium lactate ([3]; 16 h, 100 mg/ml): 129%
- increase of calcium concentration in the supernatant in comparison with control, calcium gluconate ([3]; 16 h, 100 mg/ml): 12%
- increase of calcium concentration in the supernatant in comparison with control, calcium lactate ([3]; 16 h, 100 mg/ml): 29%
- Amount of Fe2+ ion (mg/ml) After light-irradiation [4]: 4.4 mg/mL
- Amount of Fe2+ ion (mg/ml) Before light-irradiation [4]: 10.1 mg/mL
- Degree of coloring (Abs. at 420 nm) Preserved for 40 hrs [5, 7]: 0.311
- Degree of coloring (Abs. at 420 nm) Preserved for 96 hrs [5]: 0.380
- Degree of coloring (Abs. at 420 nm) Preserved for 40 hrs [5, 8]: 0.226
